PMC6651387, “Fine-Tuning the Activation Mode of an 1,3-Indandione-Based Ruthenium(II)-Cymene Half-Sandwich Complex by Variation of Its Leaving Group” (Molecules, 2019)
Read-outs that look alike come from different tables or passages of the source.

Experiments:
[1] = MeOH, conventional desk lamp, UV-VIS 250–700 nm
Experimental: Light activation studies were performed on the same UV-VIS spectrometer. Fourty microliters of solutions (MeOH) were irradiated with a conventional desk lamp, and every 2.5–10 min (depending on progress) a wavelength scan (250–700 nm) was recorded.

[2] = test system: A549 (non-small cell lung cancer) cells; assay: MTT antiproliferative assay, A549; assay type: cell-based, human; conditions: exposure time 96 h, means ± standard deviations
Experimental: (§1) CH1/PA-1 (ovarian teratocarcinoma) cells were a generous gift from Lloyd R. Kelland (CRC Centre for Cancer Therapeutics, Institute of Cancer Research, Sutton, UK). A549 (non-small cell lung cancer), SW480, and HCT116 (both colon cancer) cells were kindly provided by the Institute of Cancer Research, Department of Medicine I, Medical University of Vienna, Austria. All cell lines were grown as monolayer cultures in Eagle’s MEM supplemented with L-glutamine (4 mM), sodium pyruvate (1 mM) and 1% (v/v) non-essential amino acid solution (all from Sigma-Aldrich) and 10% (v/v) heat-inactivated fetal calf serum (FCS, BioWest) in 75-cm^2 flasks (Starlab) at 37 °C under a humidified atmosphere containing 5% CO2 in air. […] After 24 h, test compounds were dissolved in DMSO (Fisher Scientific), serially diluted in complete MEM not to exceed a final DMSO content of 0.5% (v/v) and added in 100 μL per well. After 96 h, the drug-containing medium was replaced with 100 µL of RPMI 1640/MTT mixture, i. e., 6 parts of RPMI 1640 medium (Sigma-Aldrich; supplemented with 10% heat-inactivated fetal bovine serum and 4 mM L-glutamine), 1 part of MTT solution in phosphate-buffered saline (5 mg/mL; both from Sigma-Aldrich). After incubation for 4 h, the MTT-containing medium was replaced with 150 μL DMSO per well to dissolve the formazan product formed by viable cells. Optical densities at 550 nm (and at the reference wavelength of 690 nm) were measured with a microplate reader (ELx808, Bio-Tek). The IC50 values relative to untreated controls were interpolated from concentration–effect curves. At least three independent experiments were performed, each with triplicates per concentration level.

[3] = test system: HCT116 (colon cancer) cells; assay: MTT antiproliferative assay, HCT116; assay type: cell-based, human; conditions: exposure time 96 h, means ± standard deviations
Experimental: as §1

[4] = Lipophilicity by RP-UHPLC capacity factors (logkw, Φ0); assay type: physicochemical
Source text: It stands to reason that the higher the lipophilicity, the higher the cell accumulation; as far as passive diffusion is concerned, the higher efficiency with which normal cell function is compromised. As a consequence, lipophilicity is an important factor in drug development, described by the partition coefficient logP, which is routinely determined by the distribution of a compound in 1-octanol/water. However, 1-octanol, a solvent said to closely mimic the solubilizing behavior of cell membranes, forms emulsions with water. Additionally, the shake-flask method, seemingly easy, requires long sample preparation, has a low sample throughput, and lacks reproducibility, as it hinges on exact temperature control and consistent equilibration time allotted for every analyte. The time-consuming nature of this method may also lead to decomposition of the analyte. A concentration-, flow rate-, and column length-independent method is the determination of the capacity factor (k) via HPLC. The capacity factor is a measure for the equilibrium concentration between a polar phase (eluent) and an apolar phase (C18 column coating) and higher resemblance to the partition coefficient in […]. […] The percentage of methanol in the eluent at which logk is equal to zero is Φ0 [27, 28, 29].
The capacity factors k were determined with the use of an RP-UHPLC. The necessary chromatograms were recorded with a Dionex UltiMate 3000 RS UHPLC system (Thermo Fisher Scientific, Bedford, MA, USA) controlled by the Dionex Chromeleon 7.2 software. […] The capacity factors were then calculated as logk = log[(tR − t0)/t0], where tR and t0 are the retention times of the analyte and the dead time marker, respectively, at the respective MeOH:0.1% FA in water ratio. Every retention time was determined in isocratic mode for the different eluent ratios to obtain capacity factors in the linear range (−0.5 ≤ logk ≤ 1.5) in triplicate. A plot of logk against the % of the organic eluent yielded logkw (intercept) and S (slope). Φ0, the factor most closely resembling logP, was then determined as follows: Φ0 = −logkw/S [28].

[5] = test system: SW480 (colon cancer) cells; assay: MTT antiproliferative assay, SW480; assay type: cell-based, human; conditions: exposure time 96 h, means ± standard deviations
Experimental: as §1

[6] = test system: CH1/PA-1 (ovarian teratocarcinoma) cells; assay: MTT antiproliferative assay, CH1/PA-1; assay type: cell-based, human; conditions: exposure time 96 h, means ± standard deviations
Experimental: CH1/PA-1 (ovarian teratocarcinoma) cells were a generous gift from Lloyd R. Kelland (CRC Centre for Cancer Therapeutics, Institute of Cancer Research, Sutton, UK). A549 (non-small cell lung cancer), SW480, and HCT116 (both colon cancer) cells were kindly provided by the Institute of Cancer Research, Department of Medicine I, Medical University of Vienna, Austria. All cell lines were grown as monolayer cultures in Eagle’s MEM supplemented with L-glutamine (4 mM), sodium pyruvate (1 mM) and 1% (v/v) non-essential amino acid solution (all from Sigma-Aldrich) and 10% (v/v) heat-inactivated fetal calf serum (FCS, BioWest) in 75-cm^2 flasks (Starlab) at 37 °C under a humidified atmosphere containing 5% CO2 in air.
Antiproliferative activity of the compounds was determined with the colorimetric MTT assay (MTT = 3-(4,5-dimethyl-2-thiazolyl)-2,5-diphenyl-2H-tetrazolium bromide). CH1/PA-1, HCT116, SW480, and A549 cells with cell numbers of 1 × 10^3, 1.5 × 10^3, 2 × 10^3, and 3 × 10^3, respectively, were seeded in 100 μL per well into 96-well microculture plates (Starlab). After 24 h, test compounds were dissolved in DMSO (Fisher Scientific), serially diluted in complete MEM not to exceed a final DMSO content of 0.5% (v/v) and added in 100 μL per well. After 96 h, the drug-containing medium was replaced with 100 µL of RPMI 1640/MTT mixture, i. e., 6 parts of RPMI 1640 medium (Sigma-Aldrich; supplemented with 10% heat-inactivated fetal bovine serum and 4 mM L-glutamine), 1 part of MTT solution in phosphate-buffered saline (5 mg/mL; both from Sigma-Aldrich). After incubation for 4 h, the MTT-containing medium was replaced with 150 μL DMSO per well to dissolve the formazan product formed by viable cells. Optical densities at 550 nm (and at the reference wavelength of 690 nm) were measured with a microplate reader (ELx808, Bio-Tek). The IC50 values relative to untreated controls were interpolated from concentration–effect curves. At least three independent experiments were performed, each with triplicates per concentration level.

[7] = test system: SW480 cells; assay: Cellular accumulation by ICP-MS quantification of ruthenium (or platinum); assay type: cell-based, human; conditions: 50 µM, exposure time 2 h, ICP-MS of ruthenium
Experimental: Ruthenium accumulation was measured by means of inductively coupled plasma mass spectrometry (ICP-MS) upon 2 h exposure of SW480 cells to 50 µM of each compound.
Cellular accumulation of the compounds was studied based on a previously described method with modifications as follows: SW480 cells with a number of 1.8 × 10^5 per well were seeded into 12-well plates in aliquots of 1 mL complete MEM and incubated at 37 °C for 24 h. Then, cells were exposed for 2 h at 37 °C to 50 μM solutions of the test compounds (containing 0.5% DMSO) in 500 µL of fresh complete MEM upon exchange of the medium. Afterwards, cells were washed three times with PBS, and lyzed with 0.4 mL sub-boiled HNO3 per well for 1 h at room temperature. Ruthenium content was quantified by ICP-MS using an Agilent 7500ce quadrupole ICP-MS instrument (Agilent Technologies, Waldbronn, Germany) equipped with a CETAC ASX-520 autosampler (Nebraska, USA) and a MicroMist nebulizer. Ruthenium and indium standards were obtained from CPI International (Amsterdam, The Netherlands). The instrument was equipped with nickel cones and operated at an RF power of 1560 W, with argon as the plasma gas (15 L/min), carrier gas (1.0–1.1 L/min) and make-up gas (0.1–0.2 L/min). The Agilent MassHunter software package (Workstation Software, Version B.01.01, Build 123.11, Patch 4, 2012) was used for data processing. Results are based on at least three independent experiments, each comprising triplicate samples. The instrument was tuned on a daily basis for maximum sensitivity and doubly charged species as well as oxide rates were <5%.

[8] = test system: SW480 cells; parameters: method as in PMID 27055943; conditions: exposure time 2 h, platinum; cited from earlier work
[9] = test system: SW480 (colon cancer) cells; parameters: method as in PMID 25032896; conditions: MTT assay, 96 h; cited from earlier work
[10] = test system: A549 (non-small cell lung cancer) cells; parameters: method as in PMID 25032896; conditions: MTT assay, 96 h; cited from earlier work
[11] = test system: CH1/PA-1 (ovarian teratocarcinoma) cells; parameters: method as in PMID 25032896; conditions: MTT assay, 96 h; cited from earlier work

Cc1ccc(C(C)C)cc1.F[P-](F)(F)(F)(F)F.O=C1C(=C(NCc2ccccc2)[O][Ru+])C(=O)c2ccccc21.c1ccncc1 [1f]
time until no more change upon light irradiation (completion of the reaction) [1]: 75 min
IC50 [2]: 22.1 ± 3.2 µM
IC50 [3]: 20.2 ± 6.4 µM
Intercept logkw ([4]; RP-UHPLC, MeOH/0.1% formic acid in water, 25 °C, logk extrapolated to 100% water): 5.25
Φ0 ([4]; percentage of methanol in the eluent at which logk is zero, Φ0 = −logkw/S): 62.07
Slope S ([4]; slope of logk against % organic eluent (MeOH)): −0.0845
IC50 [5]: 6.3 ± 1.1 µM
IC50 [6]: 8.2 ± 2 µM
cellular accumulation, fg Ru or Pt/Cell [7]: 231 ± 93 fg Ru or Pt/Cell

N.N.[Cl][Pt][Cl] [Cisplatin]
cellular accumulation, fg Ru or Pt/Cell [8]: 12 ± 2 fg Ru or Pt/Cell
IC50 [9]: 3.3 ± 0.2 µM
IC50 [10]: 6.2 ± 1.2 µM
IC50 [11]: 0.077 ± 0.006 µM
